The results in this text go back to ChEMBL document CHEMBL3414432, “Discovery of N-benzoxazol-5-yl-pyrazole-4-carboxamides as nanomolar SQR inhibitors” (Eur J Med Chem, 2015).

A short description of assay [1]: Inhibition of porcine heart SQR in SCR complex assessed as reduction in ubiquinol-cytochrome c reductase (complex 3) activity by measuring cytochrome c level using succinate and DCIP substrate by spectrophotometry. More on the design: species or system Sus scrofa.
Assay [2] can be described thus: Inhibition of rat liver SQR.
Assay [3] is described as follows: Inhibition of bovine heart SQR. On the set-up: species or system Bos taurus.
For assay [4], the target named is T1, Succinate-ubiquinone oxidoreductase (Sus scrofa, UniProt A5GZW8+D0VWV4).
T1 sequence (A5GZW8 whole entry): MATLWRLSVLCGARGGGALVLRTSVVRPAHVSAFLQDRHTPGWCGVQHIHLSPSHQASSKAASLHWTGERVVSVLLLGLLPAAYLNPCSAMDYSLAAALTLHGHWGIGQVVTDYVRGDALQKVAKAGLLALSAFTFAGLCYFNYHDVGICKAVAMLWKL
T1 sequence (D0VWV4 whole entry): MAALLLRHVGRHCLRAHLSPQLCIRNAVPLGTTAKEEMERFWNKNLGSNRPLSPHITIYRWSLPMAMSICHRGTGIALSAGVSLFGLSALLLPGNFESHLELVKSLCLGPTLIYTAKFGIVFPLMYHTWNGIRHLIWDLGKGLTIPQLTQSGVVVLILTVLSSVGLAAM
Kind of assay: Non-competitive inhibition of porcine heart SQR in SCR complex with respect to DCIP substrate at 23 degC by double-reciprocal plot. Type of assay: protein-complex assay.

The target of assay [5] is T1, Succinate-ubiquinone oxidoreductase. Kind of assay: Inhibition of porcine heart SQR in SCR complex assessed as reduction in ubiquinol-cytochrome c reductase (complex 3) activity by measuring cytochrome c level using succinate and DCIP substrate at 23 degC by spectrophotometry. Type of assay: protein-complex assay.
For assay [6], the species on record is Sus scrofa. The assay is described as follows: Inhibition of porcine heart electron transport protein complex 3 in SCR complex at 10 uM using DBH2 and cytochrome c substrate by spectrophotometry.
Assay [7] can be described thus: Inhibition of porcine heart SCR using succinate and cytochrome c substrate at 23 degC by spectrophotometry. More on the design: species or system Sus scrofa.
Assay [8] in a line: Non-competitive inhibition of porcine heart SCR with respect to cytochrome c substrate at 23 degC by double-reciprocal plot. More on the design: species or system Sus scrofa.
The species named for assay [9] is Sus scrofa. Kind of assay: Potency index, ratio of Ki for penthiopyrad to Ki for compound against porcine heart SCR.
In assay [10] the target is Succinate-ubiquinone oxidoreductase (Sus scrofa) (UniProt A5GZW8+D0VWV4). The assay is described as follows: Potency index, ratio of Ki for penthiopyrad to Ki for compound against porcine heart SQR in SCR complex. Type of assay: protein-complex assay.

Consider `COc1ccc(CSc2nc3cc(NC(=O)c4cn(C)nc4C(F)(F)F)ccc3o2)cc1`, for which, in assay [1], the IC50 came out at 284 nM.

As for `Cn1cc(C(=O)Nc2ccc3oc(SCc4cccc(Br)c4)nc3c2)c(C(F)(F)F)n1`, the IC50 in assay [1] amounted to 119 nM.

On to `Cn1cc(C(=O)Nc2ccc3oc(SCc4cccc(Cl)c4)nc3c2)c(C(F)(F)F)n1`, for which, in assay [1], the IC50 worked out at 149 nM.

Turning to `Cn1cc(C(=O)Nc2ccc3oc(SCc4cccc(Cl)c4)nc3c2)c(C(F)F)n1`, the IC50 in assay [1] was 82 nM.

Regarding `Cn1cc(C(=O)Nc2ccc3oc(SCc4ccc(F)c(F)c4)nc3c2)c(C(F)(F)F)n1`, the IC50 in [1] worked out at 130 nM.

Take `Cn1cc(C(=O)Nc2ccc3oc(SCc4ccc(F)cc4)nc3c2)c(C(F)(F)F)n1`: the 50% inhibitory concentration (IC50) in assay [1] stood at 210 nM.

As for `Cc1ccc(CSc2nc3cc(NC(=O)c4cn(C)nc4C(F)F)ccc3o2)cc1`, in [1], the IC50 was determined as 216 nM.

With `Cn1cc(C(=O)Nc2ccc3oc(SCc4ccc(C#N)cc4)nc3c2)c(C(F)(F)F)n1`, the IC50 in assay [1] was found to be 562 nM.

Regarding `Cc1ccc(CSc2nc3cc(NC(=O)c4cn(C)nc4C(F)(F)F)ccc3o2)cc1`, the IC50 in [1] turned out to be 269 nM.

For the compound `Cn1cc(C(=O)Nc2ccc3oc(SCc4ccc(C(F)(F)F)cc4)nc3c2)c(C(F)F)n1`, the IC50 in assay [1] stood at 39 nM.

Take `COc1[nH]c(=O)c(C(=O)[C@@H](C)C[C@H](C)[C@@H](Cl)CCl)c(O)c1OC` [ATPENIN A5]: the concentration for half-maximal inhibition (IC50) in assay [2] worked out at 3.7 nM; in [3], 3.6 nM.

In the case of `Cn1cc(C(=O)Nc2ccc3oc(SCc4ccc(F)c(F)c4)nc3c2)c(C(F)F)n1`, the IC50 in assay [1] stood at 100 nM.

Regarding `Cn1cc(C(=O)Nc2ccc3oc(SCc4ccc(C(F)(F)F)cc4)nc3c2)c(C(F)(F)F)n1`, in [1], the half-maximal inhibitory concentration (IC50) stood at 83 nM.

For the compound `Cn1cc(C(=O)Nc2ccc3oc(SCc4ccc(OC(F)(F)F)cc4)nc3c2)c(C(F)(F)F)n1`, in assay [1], the IC50 came out at 88 nM.

In the case of `Cn1cc(C(=O)Nc2ccc3oc(SCc4ccc(F)cc4)nc3c2)c(C(F)F)n1`, the concentration for half-maximal inhibition (IC50) in assay [1] amounted to 101 nM.

Consider `Cn1cc(C(=O)Nc2ccc3oc(SCc4cccc(F)c4)nc3c2)c(C(F)F)n1`, for which, in assay [1], the 50% inhibitory concentration (IC50) is 244 nM.

With `Cn1cc(C(=O)Nc2ccc3oc(SCc4ccc(C#N)cc4)nc3c2)c(C(F)F)n1`, the half-maximal inhibitory concentration (IC50) in assay [1] is 397 nM.

Take `Cn1cc(C(=O)Nc2ccc3oc(SCc4ccc(Cl)cc4)nc3c2)c(C(F)F)n1`: the half-maximal inhibitory concentration (IC50) in assay [1] amounted to 57 nM.

`CC(C)CC(C)c1sccc1NC(=O)c1cn(C)nc1C(F)(F)F` (configuration not stated) [PENTHIOPYRAD]: the inhibitory constant (Ki) turned out to be 327 nM in [4] and 1390 nM in assay [8]. For the same compound, the IC50 amounted to 527 nM in assay [5], 1320 nM in assay [7] and 1320 nM in assay [1]. The compound also displayed an inhibition in [6] of less than 10%.

Regarding `Cn1cc(C(=O)Nc2ccc3oc(SCc4ccc(OC(F)(F)F)cc4)nc3c2)c(C(F)F)n1`, the figures for the Ki in [4] and in assay [8] were 11 nM and 43 nM, respectively. Besides, the results for the 50% inhibitory concentration (IC50) in [5], in [7] and in assay [1] were 11 nM, 38 nM and 38 nM, respectively. The Ratio Ki in assay [9] and in assay [10] was 30 in each case. This compound had an inhibition in assay [6] of 13%.

`Cn1cc(C(=O)Nc2ccc3oc(SCc4ccc(Cl)cc4)nc3c2)c(C(F)(F)F)n1`: the half-maximal inhibitory concentration (IC50) in assay [1] stood at 111 nM.

Turning to `COc1ccc(CSc2nc3cc(NC(=O)c4cn(C)nc4C(F)F)ccc3o2)cc1`, the IC50 in assay [1] is 208 nM.

Turning to `Cn1cc(C(=O)Nc2ccc3oc(SCc4cccc(Br)c4)nc3c2)c(C(F)F)n1`, the 50% inhibitory concentration (IC50) in [1] was determined as 62 nM.

As for `Cn1cc(C(=O)Nc2ccc3oc(SCc4cccc(F)c4)nc3c2)c(C(F)(F)F)n1`, the half-inhibitory concentration (IC50) in assay [1] was 418 nM.
